# According to patent publication US20230263822A1, “MODULATION OF FACTOR 11 EXPRESSION” (Ionis Pharmaceuticals, Inc., priority 2008, published 2023):
# Strand notation (5' to 3'): a small letter for the sugar, then the base; units joined by * are phosphorothioate-linked, units joined directly phosphodiester-linked; [ ] holds rarer units or linkages, { } end groups; capitals alone tell only the bases. e = 2'-O-(2-methoxyethyl) (MOE); [5mC] = 5-methylcytosine; d = 2'-deoxy (DNA)
# Tested on: human Factor 11 mRNA
# Assay: Antisense inhibition of human Factor 11 in HepG2 cells, lipofectin, 75 nM (Example 1)
# Assay type: cell-based
# Settings: 75 nM antisense oligonucleotide, ~24 h, relative to untreated control cells, gapmers targeted to SEQ ID NO: 1
# Description: Antisense oligonucleotides targeted to a Factor 11 nucleic acid were tested for their effects on Factor 11 mRNA in vitro. Cultured HepG2 cells at a density of 10,000 cells per well were transfected using lipofectin reagent with 75 nM antisense oligonucleotide. After a treatment period of approximately 24 hours, RNA was isolated from the cells and Factor 11 mRNA levels were measured by quantitative real time PCR. Factor 11 mRNA levels were adjusted according to total RNA content, as measured by RIBOGREEN. Results are presented as percent inhibition of Factor 11, relative to untreated control cells.
# The chimeric antisense oligonucleotides in Tables 1 and 2 were designed as 5-10-5 MOE gapmers. The gapmers are 20 nucleotides in length, wherein the central gap segment is comprised of 10 2′-deoxynucleotides and is flanked on both sides (in the 5′ and 3′ directions) by wings comprising 5 nucleotides each. Each nucleotide in the 5′ wing segment and each nucleotide in the 3′ wing segment has a 2′-MOE modification. The internucleoside linkages throughout each gapmer are phosphorothioate (P=S) linkages. All cytidine residues throughout each gapmer are 5-methylcytidines. “Target start site” indicates the 5′-most nucleotide to which the gapmer is targeted. “Target stop site” indicates the 3′-most nucleotide to which the gapmer is targeted. Each gapmer listed in Table 1 is targeted to SEQ TD NO: 1 (GENBANK Accession No. NM_000128.3) and each gapmer listed in Table 2 is targeted to SEQ TD NO: 2 (GENBANK Accession No. NT_022792.17, truncated from 19598000 to 19624000).
row,Substance,% inhibition
1,413472 (antisense eT*eG*eG*eG*eT*dG*dT*dG*d[5mC]*dT*dT*d[5mC]*dA*dG*dT*eA*eG*eA*e[5mC]*eA) [compound 413472],99%
2,413473 (antisense eA*eG*e[5mC]*e[5mC]*eA*dG*dA*dT*dT*dA*dG*dA*dA*dA*dG*eT*eG*e[5mC]*eA*e[5mC]) [compound 413473],80%
3,413475 (antisense eG*e[5mC]*e[5mC]*eA*eT*dT*d[5mC]*d[5mC]*dT*dG*dG*dG*dA*dA*dA*eA*eG*eA*eA*eG) [compound 413475],80%
4,413477 (antisense eA*e[5mC]*eT*eG*eA*dA*dA*d[5mC]*d[5mC]*dA*dG*dA*dA*dA*dG*eA*eG*e[5mC]*eT*eT) [compound 413477],54%
5,413478 (antisense eA*eG*eA*eA*eT*dG*dG*d[5mC]*dA*dG*dA*dA*d[5mC]*dA*d[5mC]*eT*eG*eG*eG*eA) [compound 413478],53%
6,413479 (antisense eT*eG*eT*e[5mC]*eA*dT*dG*dG*dT*dA*dA*dA*dA*dT*dG*eA*eA*eG*eA*eA) [compound 413479],40%
7,413480 (antisense eA*eA*eG*eA*eA*dA*dT*d[5mC]*dA*dG*dT*dG*dT*d[5mC]*dA*eT*eG*eG*eT*eA) [compound 413480],71%
8,413483 (antisense eA*eA*e[5mC]*eT*eG*dG*d[5mC]*dA*dG*d[5mC]*dG*dG*dA*d[5mC]*dG*eG*e[5mC]*eA*eT*eT) [compound 413483],78%
9,413484 (antisense e[5mC]*e[5mC]*eT*eT*eA*dA*dT*dG*dT*dG*dT*dA*dT*d[5mC]*d[5mC]*eA*eG*eA*eG*eA) [compound 413484],74%
10,413485 (antisense eT*eG*eG*eT*eG*dG*dT*dA*d[5mC]*dA*d[5mC]*dT*d[5mC]*dA*dT*eT*eA*eT*e[5mC]*e[5mC]) [compound 413485],68%
11,413486 (antisense eG*eG*e[5mC]*eT*eT*dG*dA*dT*dT*dT*dT*dG*dG*dT*dG*eG*eT*eA*e[5mC]*eA) [compound 413486],83%
12,413487 (antisense eA*eA*e[5mC]*eG*eA*dT*d[5mC]*d[5mC]*dT*dG*dG*dG*d[5mC]*dT*dT*eG*eA*eT*eT*eT) [compound 413487],57%
13,413488 (antisense eA*e[5mC]*eA*eG*eG*dT*dG*dT*d[5mC]*dT*d[5mC]*dT*dG*dA*dG*eT*eG*eG*eG*eT) [compound 413488],49%
14,413489 (antisense e[5mC]*eA*e[5mC]*eT*eG*dG*dT*dT*dT*d[5mC]*d[5mC]*dA*dA*dT*dG*eA*eT*eG*eG*eA) [compound 413489],68%
15,413490 (antisense e[5mC]*eT*eA*e[5mC]*e[5mC]*d[5mC]*d[5mC]*dA*dT*dA*dG*dA*dA*dA*d[5mC]*eA*eG*eT*eG*eA) [compound 413490],57%
16,413491 (antisense eT*eT*eA*eG*eG*dT*dG*dA*d[5mC]*dT*d[5mC]*dT*dA*d[5mC]*d[5mC]*e[5mC]*e[5mC]*eA*eT*eA) [compound 413491],73%
17,413492 (antisense eA*eG*eA*e[5mC]*eA*d[5mC]*dG*d[5mC]*dA*dA*dA*dA*dT*d[5mC]*dT*eT*eA*eG*eG*eT) [compound 413492],68%
18,413493 (antisense eT*eT*eT*e[5mC]*eT*dT*dG*dA*dA*d[5mC]*d[5mC]*d[5mC]*d[5mC]*dA*dA*eA*eG*eA*eA*eA) [compound 413493],65%
19,413494 (antisense eG*eT*eG*eG*eT*dT*dT*d[5mC]*d[5mC]*dA*dG*dT*dT*dT*d[5mC]*eA*eA*e[5mC]*eA*eA) [compound 413494],70%
20,413495 (antisense eT*eT*eG*eG*e[5mC]*dT*dT*dT*d[5mC]*dT*dG*dG*dA*dG*dA*eG*eT*eA*eT*eT) [compound 413495],58%
21,413496 (antisense eG*eG*e[5mC]*eA*e[5mC]*dA*dG*dA*dT*d[5mC]*dA*dT*d[5mC]*dT*dT*eA*eT*eG*eG*eG) [compound 413496],72%
22,413497 (antisense eG*eA*eT*eT*e[5mC]*d[5mC]*dT*dG*d[5mC]*dA*dA*dA*dA*dT*dG*eG*eT*eG*eA*eA) [compound 413497],39%
23,413498 (antisense eG*e[5mC]*eA*eG*eA*dG*dT*dG*dT*dA*dG*dA*dT*dT*d[5mC]*e[5mC]*eT*eG*e[5mC]*eA) [compound 413498],60%
24,413499 (antisense eA*eT*e[5mC]*eA*eT*dT*dT*dT*dT*d[5mC]*dA*dG*dG*dA*dA*eA*eG*eT*eG*eT) [compound 413499],52%

# Same assay, conditions: 75 nM antisense oligonucleotide, ~24 h, relative to untreated control cells, gapmers targeted to SEQ ID NO: 2
row,Substance,% inhibition
1,413500 (antisense eG*eT*eG*eA*eG*dA*d[5mC]*dA*dA*dA*dT*d[5mC]*dA*dA*dG*eA*e[5mC]*eT*eT*e[5mC]) [compound 413500],15%
2,413501 (antisense eT*eT*eA*eG*eT*dT*dT*dA*d[5mC]*dT*dG*dA*d[5mC]*dA*d[5mC]*eT*eA*eA*eG*eA) [compound 413501],23%
3,413502 (antisense e[5mC]*eT*eG*e[5mC]*eT*dT*dT*dA*dT*dG*dA*dA*dA*dA*dA*e[5mC]*e[5mC]*eA*eA*e[5mC]) [compound 413502],22%
4,413503 (antisense eA*eT*eA*e[5mC]*e[5mC]*dT*dA*dG*dT*dA*d[5mC]*dA*dA*dT*dG*eT*eA*eA*eA*eT) [compound 413503],29%
5,413504 (antisense eG*eG*e[5mC]*eT*eT*dG*dT*dG*dT*dG*dT*dG*dG*dT*d[5mC]*eA*eA*eT*eA*eT) [compound 413504],54%
6,413505 (antisense eT*eG*eG*eG*eA*dA*dA*dG*d[5mC]*dT*dT*dT*d[5mC]*dA*dA*eT*eA*eT*eT*e[5mC]) [compound 413505],57%
7,413506 (antisense eA*eT*eG*eG*eA*dA*dT*dT*dG*dT*dG*d[5mC]*dT*dT*dA*eT*eG*eA*eG*eT) [compound 413506],57%
8,413507 (antisense eT*eT*eT*e[5mC]*eA*dA*dG*d[5mC]*dT*d[5mC]*dA*dG*dG*dA*dT*eG*eG*eG*eA*eA) [compound 413507],55%
9,413508 (antisense eG*eT*eT*eG*eG*dT*dA*dA*dA*dA*dT*dG*d[5mC]*dA*dA*e[5mC]*e[5mC]*eA*eA*eA) [compound 413508],64%
10,413509 (antisense eT*e[5mC]*eA*eG*eG*dA*d[5mC]*dA*d[5mC]*dA*dA*dG*dT*dA*dA*eA*e[5mC]*e[5mC]*eT*eG) [compound 413509],66%
11,413510 (antisense eT*eG*e[5mC]*eA*eA*dG*d[5mC]*dT*dG*dG*dA*dA*dA*dT*dA*eA*eA*eA*eG*e[5mC]) [compound 413510],17%
12,413511 (antisense eT*eG*e[5mC]*e[5mC]*eA*dA*dT*dT*dT*dA*dA*dA*dA*dG*dT*eG*eT*eA*eG*e[5mC]) [compound 413511],43%
13,413512 (antisense eA*eT*eA*eT*eT*dT*d[5mC]*dA*dA*dA*dA*dT*d[5mC]*d[5mC]*dA*eG*eT*eA*eT*eG) [compound 413512],39%
14,413513 (antisense eT*eT*e[5mC]*eT*eG*dA*dA*dT*dA*dT*dA*d[5mC]*dA*dA*dA*eT*eT*eA*eA*eT) [compound 413513],27%
15,413514 (antisense eT*eT*eT*eA*e[5mC]*dT*dA*dT*dG*dA*dA*dA*dA*dT*d[5mC]*eT*eA*eA*eA*eT) [compound 413514],5%
16,413515 (antisense eG*eG*eT*eA*eT*d[5mC]*d[5mC]*dT*dG*dA*dG*dT*dG*dA*dG*eA*eT*e[5mC]*eT*eA) [compound 413515],36%
17,413516 (antisense e[5mC]*e[5mC]*eA*eG*e[5mC]*dT*dA*dT*d[5mC]*dA*dG*dG*dA*dA*dA*eA*eT*eT*e[5mC]*e[5mC]) [compound 413516],50%
18,413517 (antisense eA*eA*eA*eG*e[5mC]*dT*dA*dT*dT*dG*dG*dA*dG*dA*d[5mC]*eT*e[5mC]*eA*eG*eA) [compound 413517],51%
19,413518 (antisense eA*eT*eG*eG*eA*dA*dT*d[5mC]*dT*d[5mC]*dT*dT*d[5mC]*dA*dT*eT*eT*e[5mC]*eA*eT) [compound 413518],49%
20,413519 (antisense eA*eT*eG*eG*eA*dG*dA*d[5mC]*dA*dT*dT*d[5mC]*dA*dT*dT*eT*e[5mC]*e[5mC]*eA*e[5mC]) [compound 413519],59%
21,413520 (antisense eG*e[5mC]*eT*e[5mC]*eT*dG*dA*dG*dA*dG*dT*dT*d[5mC]*d[5mC]*dA*eA*eT*eT*e[5mC]*eA) [compound 413520],52%
22,413521 (antisense e[5mC]*eT*eG*eG*eG*dA*dA*dG*dG*dT*dG*dA*dA*dT*dT*eT*eT*eT*eA*eG) [compound 413521],62%
